Source: patent US9265751B2, “Methods for treating chronic pain” (Nagasaki University, priority 2008, dated 2016)
Entries after “also recorded” stand apart in the source; their conditions may differ.

Columns and labels:
Assay type in all cases: in vivo, mouse
ATX = assay: Mechanical nociception test (automated digitized von Frey) in ICS stress mice given ATX-AS/ATX-MS i.c.v.; details: P1 to P12 after ICS stress; 10 μg/5 μl i.c.v.
Protocol: ATX-antisense is a drug that suppresses the synthesis of the mRNA of ATX, an LPA synthetase. The ATX-antisense (ATX-AS) used was designed to have the base sequence: “5′-GTCTTGCCATGCCGAGGGAT-3′ (SEQ ID NO:13)”, and the ATX-missense (ATX-MS) used was designed to have the base sequence: “5′-GTTCTCGCAGTCGCAGGAGT-3′ (SEQ ID NO:14)”. The dosage was 10 μg/5 μl both for the antisense and for the missense.
ATX-antisense (operon, 3170003) was given by intracerebroventricular administration on consecutive days starting five days previously, including days of stress loading (FIG. 8A). Doses were given in solution in artificial cerebro-spinal fluid. For control groups, the same amounts of ATX-missense (operon, 3170004) and the solvent were administered, respectively. […]
(§1) Prior to the experiment, each mouse was placed on a rack on a mesh and covered with a cage from above, and the animal was acclimated to the same environment as the experiment for not less than 1 hour. The tip of a plastic chip was pressed vertically against the center of a hind paw of the mouse from below the rack; when the mouse behaved to withdraw the hind leg, the automatically measured value was read. […]
(§2) With the day of completion of ICS loading as P1, pain threshold values were measured on P3, P5, P12 and P19.

PLA2 [1] = assay: Mechanical nociception test (automated digitized von Frey) in ICS stress mice given BEL i.c.v.; details: between P1 and P5, significant change at P3, two doses
Protocol: (§3) As a PLA2 inhibitor, Bromoenol lactone (Cayman chemical) was used. Drug administration was performed twice in total at 10 a.m. before performing repeated cold stimulation in stress loading (FIG. 9A).
(§4) The whole amount of 5 mg of the drug was dissolved in 200 μl of DMSO and dispensed at 20 nmol/10 μl. 384 μl of artificial cerebro-spinal fluid was added thereto. For a control group, the same amounts of DMSO and artificial cerebro-spinal fluid were mixed and administered. Using a 50 μl Hamilton microsyringe and a needle-equipped cannula, a total volume of 5 μl was given by intracerebroventricular administration. A 26-gauge needle for intracerebroventricular administration was used.
(§5) To create a mouse model of fibromyalgia, ICS (Intermittent Cold Stress) was loaded. […]
as §1, §2

PLA2 [2] = assay: Thermal nociception test (Hargreaves) in ICS stress mice given BEL i.c.v.; details: between P1 and P5, significant change at P3, two doses
Protocol: as §3, §4, §5
Prior to the experiment, each mouse was placed on a glass plate and covered with a cage from above, and the animal was acclimated to the same environment as the experiment for not less than 1 hour. A thermal stimulus was given to a hind paw of the mouse; when the mouse behaved to escape the stimulus, the automatically measured value was read. […]
as §2

LPA1 receptor = assay: Mechanical stimulus-induced pain test (digitized von Frey) in SART (ICS) stress mice given LPA1 AS-ODN/MS-ODN i.c.v.
Protocol: Exposure to SART (ICS) stress was achieved by repeatedly altering extremely different rearing environmental temperatures. Temperature settings were established at room temperature (24° C.) and cold temperature (4° C.). Rearing cages were placed in environments set at the respective temperatures; the animals were reared, with transfer of the mice only every 30 minutes in the daytime (from 10:00 to 16:30), and at the cold temperature in the nighttime (from 16:30 to 10:00 on the following day). This repeated stress was given for 3 days from 16:30 on the day before stress loading to 10:00 on day 3 of stress loading. A solid food and agar for water supply were always kept in the cage during the above-described stress loading period, to maintain an environment allowing the animals to have free access thereto.
A hypersensitive response induction experiment with ICS stress was applied to mice previously dosed with an antisense oligodeoxynucleotide that complementarily binds to the lysophosphatidic acid (hereinafter, denoted as LPA) receptor gene to inhibit the expression thereof (hereinafter, denoted as AS-ODN) as an animal model of generalized pain disease, and the stress exposure of Production Example 1 was performed.
Ten to twelve C57BL/6J mice at 6 weeks of age (20 to 22 g) were used in a normal control group and an ICS stress loading group.
Using “5′-[…]-3′ (SEQ ID NO:5)” as AS-ODN, BLAST search was performed; it was confirmed that the sequence thereof was specific for the LPA1 receptor. For comparative control, mice dosed with a missense oligodeoxynucleotide having a noncomplementary sequence (hereinafter, denoted as MS-ODN) and mice dosed with artificial cerebro-spinal fluid (ACSF) as Vehicle were used. Using “5′-[…]-3′ (SEQ ID NO:6)” as MS-ODN, BLAST search was performed; it was confirmed that the sequence thereof was not similar to other receptors.
SART (ICS) stress based on Production Example 1 above was loaded on the mice after being given ODN and ACSF, after which pain threshold values were measured, and changes over days were examined.
In Example 3, chronic pains were evaluated on mice loaded with stress based on Production Example and Examples. Regarding how to evaluate chronic pains, pain threshold values were evaluated over days by a mechanical stimulus-induced pain test. The mechanical stimulus-induced pain test was performed according to the digitized von Frey method.
AS-ODN was given by intracerebroventricular administration at 10 μg once daily, starting five days before SART (ICS) stress loading. After pretreatment for 5 consecutive days, SART (ICS) stress was started, and intracerebroventricular administration was performed once a day even during the stress loading period. However, there was no administration on day 3 of stress loading, after which administration was discontinued; a total of 7 administrations were performed. The single-dose volume was 5 μl.
In the same way as the above-described method of treatment, MS-ODN and Vehicle were administered 7 times in total before stress loading and during the stress loading period.
On mice acclimated to the environment on a 5 mm×5 mm-mesh net (adaptation-applied), a custom-made plastic chip was applied to a planta of each mouse under a constant pressure from below. At that time, responding weight threshold values were measured digitally.

LPA2 receptor = assay: Mechanical stimulus-induced pain test (digitized von Frey) in SART (ICS) stress mice given LPA2 AS-ODN/MS-ODN i.c.v.
[3] = SART (ICS) stress loading group, day 1 of stress loading, 10 μg i.c.v. once daily
[4] = SART (ICS) stress loading group, day before stress loading, 10 μg i.c.v. once daily
[5] = SART (ICS) stress loading group, pretreated i.c.v.
[6] = SART (ICS) stress loading group
[7] = treated normal control group (no stress), day 1 of stress loading

| Compound | pain threshold value (PWT) (LPA1 receptor; [3]) [g] | pain threshold value (PWT) (LPA1 receptor; [4]) [g] | persistence of hypersensitive response (LPA2 receptor; [6]) | pain threshold value (PWT) (LPA2 receptor; [3]) [g] | pain threshold value (PWT) (LPA2 receptor; [4]) [g] | further results |
| --- | --- | --- | --- | --- | --- | --- |
| 5′-GTTCTCGCAGTCGCAGGAGT-3′ (DNA GTTCTCGCAGTCGCAGGAGT; listed as DNA, chemistry not given here) [ATX-MS, ATX missense control oligonucleotide] | – | – | – | – | – | mechanical nociceptive response threshold values after ICS stress loading (ATX): significant reductions |
| O=C1O/C(=C/Br)CCC1c1cccc2ccccc12 (stereo not shown) [BEL, Bromoenol lactone] | – | – | – | – | – | reductions of mechanical nociceptive response threshold values due to ICS stress (PLA2 [1]): tended to be suppressed; thermal hyperalgesia due to ICS stress (PLA2 [2]): tended to be suppressed |
| 5′-AGCTGCCATGACAGTGCTGT-3′ (DNA, backbone and methylation of C not given here) [LPA1 AS-ODN] | 8.76 ± 0.5 | 9.77 ± 0.4 | – | – | – | hypersensitive response / chronic pain after SART (ICS) stress, measured over days (LPA1 receptor; [5]): no hypersensitive responses were noted; also recorded: suppressed; threshold values of treated normal control group versus Vehicle and LPA1 MS-ODN groups (LPA1 receptor; normal control group (no stress)): comparable |
| 5′-CGATACACTAGAACGCTCGA-3′ (DNA, backbone and methylation of C not given here) [MS-ODN] | 5.68 ± 0.7 | 9.59 ± 0.3 | at least 19 days | 5.79 ± 0.1 | 9.58 ± 0.3 | persistence of hypersensitive response (LPA1 receptor; [6]): at least 19 days; pain threshold value (PWT) (LPA1 receptor; [7]): 9.49 ± 0.2 g; pain threshold value (PWT) (LPA2 receptor; [7]): 9.65 ± 0.3 g |
| 5′-TACTACAACGAGACCATCGG-3′ (DNA, backbone and methylation of C not given here) [LPA2 AS-ODN] | – | – | at least 19 days | 6.43 ± 0.1 | 9.77 ± 0.5 | suppression of SART (ICS) stress-induced pains (LPA2 receptor; [5]): no suppression |
